These results are taken from US6734186B1, “Compounds for the treatment of female sexual dysfunction” (Pfizer Inc., priority 1999, dated 2004).

For one data set, the system named is isolated rabbit vagina. The data set can be described thus: Relaxation of precontracted (1 μM phenylephrine) isolated rabbit vaginal strips. It counts as cell-based. As to the method:
3.7 (a). Rabbit vagina in vitro preparation:—Female New Zealand white rabbits (2.0-3.0 kg) were killed by cervical dislocation. The abdominal cavity was opened and the vagina excised. Tissue strips were mounted longitudinally in Wesley Co. 5 ml silanised organ chambers with braided silk sutures (6/0 gauge) at an initial resting tension of 1.5 g in Krebs bicarbonate buffer maintained at 37° C. and gassed with 95%O2/5%CO2. The upper ligature of each tissue strip was attached to a 10 g capacity force-displacement transducer and changes in isometric force were measured and recorded using a DART in vitro data capture system. Tissues were allowed to equilibrate for 1.5 hours and were regularly washed with Krebs.
Each tissue was contracted using 1 μM bath concentration of phenylephrine. […] Tissues then received either a test agent (eg NEP or PDE inhibitor) or DMSO vehicle (time matched control).
For the purpose of curve fitting the minimum relaxation response was constrained to 0% and the maximum relaxation response was allowed to free fit.

Data set [1] concerns anaesthetised rabbit model of sexual arousal. The data set can be described thus: Increase in clitoral blood flow after iv infusion of vasoactive agents, anaesthetised rabbit model. It counts as in vivo. As to conditions: VIP 200 μg/kg iv infusion. The source says:
(§1) A ventral midline incision was made, at the caudal end of the pubis, to expose the pubic area. Connective tissue was removed to expose the tunica of the clitoris, ensuring that the wall was free from small blood vessels. The external vaginal wall was also exposed by removing any connective tissue. One laser Doppler flow probe was inserted 3 cm into the vagina, so that half the probe shaft was still visible. A second probe was positioned so that it lay just above the external clitoral wall. The position of these probes was then adjusted until a signal was obtained. A second probe was placed just above the surface of a blood vessel on the external vaginal wall. Both probes were clamped in position.
(§2) Vaginal and clitoral blood flow was recorded either as numbers directly from the Flowmeter using Po-ne-mah data acquisition software (Ponemah Physiology Platform, Gould Instrument Systems Inc), or indirectly from Gould chart recorder trace. Calibration was set at the beginning of the experiment (0-125 ml/min/100 g tissue).

Data set [2] shares this test system. The data set can be described thus: Increase in vaginal blood flow after iv infusion of vasoactive agents, anaesthetised rabbit model of sexual arousal (laser Doppler). The data set is classed as in vivo.
Description: as §1, §2
An initial infusion of Hepsaline (50UI/ml) was infused to act as a negative control.

A further data set relates to anaesthetised rabbit. As for the experimental part:
Female New Zealand rabbits (˜2.5 kg) were pre-medicated with a combination of Medetomidine (Domitor®) 0.5 ml/kg i.m., and Ketamine (Vetalar®) 0.25 ml/kg i.m. whilst maintaining oxygen intake via a face mask. The rabbits were tracheotomised using a Portex™ uncuffed endotracheal tube 3 ID., connected to ventilator and maintained at a ventilation rate of 30-40 breaths per minute, with an approximate tidal volume of 18-20 ml, and a maximum airway pressure of 10 cm H2O. Anaesthesia was then switched to Isoflurane and ventilation continued with O2 at 2 l/min. The right marginal ear vein was cannulated using a 23G or 24G catheter, and Lactated Ringer solution perfused at 0.5 ml/min. The rabbit was maintained at 3% Isoflurane during invasive surgery, dropping to 2% for maintenance anaesthesia.
The left groin area of the rabbit was shaved and a vertical incision was made approximately 5 cm in length along the thigh. The femoral vein and artery were exposed, isolated and then cannulated with a PVC catheter (17G) for the infusion of drugs and compounds. Cannulation was repeated for the femoral artery, inserting the catheter to a depth of 10 cm to ensure that the catheter reached the abdominal aorta. This arterial catheter was linked to a Gould system to record blood pressure. Samples for blood gas analysis were also taken via the arterial catheter. Systolic and diastolic pressures were measured, and the mean arterial pressure calculated using the formula (diastolic x2÷systolic)+3. Heart rate was measured via the pulse oxymeter and Po-ne-mah data acquisition software system (Ponemah Physiology Platform, Gould Instrument Systems Inc).

Data set [3] deals with human vaginal smooth muscles cell cultures. The note with it: VIP 0.5 μM; Traish 1999; cited from earlier work.

“Also recorded” adds a separate entry of the source. Like-named read-outs stand apart in the source and are kept apart here.

What is called EC50 is the concentration needed to bring the measured effect to its halfway point. Regarding `CC[C@H](C)[C@H](NC(=O)[C@H](CO)NC(=O)[C@H](CC(N)=O)NC(=O)[C@H](CC(C)C)NC(=O)[C@H](Cc1ccc(O)cc1)NC(=O)[C@H](CCCCN)NC(=O)[C@H](CCCCN)NC(=O)[C@@H](NC(=O)[C@H](C)NC(=O)[C@H](CCSC)NC(=O)[C@H](CCC(N)=O)NC(=O)[C@H](CCCCN)NC(=O)[C@H](CCCNC(=N)N)NC(=O)[C@H](CC(C)C)NC(=O)[C@H](CCCNC(=N)N)NC(=O)[C@@H](NC(=O)[C@H](Cc1ccc(O)cc1)NC(=O)[C@H](CC(N)=O)NC(=O)[C@H](CC(=O)O)NC(=O)[C@@H](NC(=O)[C@H](Cc1ccccc1)NC(=O)[C@@H](NC(=O)[C@H](C)NC(=O)[C@H](CC(=O)O)NC(=O)[C@H](CO)NC(=O)[C@@H](N)Cc1c[nH]cn1)C(C)C)[C@@H](C)O)[C@@H](C)O)C(C)C)C(=O)N[C@@H](CC(C)C)C(=O)N[C@@H](CC(N)=O)C(N)=O` [VIP, Vasoactive intestinal peptide], the “relaxation of precontracted isolated vagina” value in the data set on isolated rabbit vagina (VIP 0.1 μM) is reported as “circa 80%”. The EC50 with isolated rabbit vagina (precontracted with 1 μM phenylephrine, read-out: EC50 for relaxation in isolated vaginal tissue) amounted to 18.8 ± 0.6 nM. In addition, the “increase in clitoral blood flow” value in data set [1] was found to be 115%. Also, in data set [2] (VIP 60 μg/kg intravenous), the “increase in vaginal blood flow” value turned out to be 24.7±3.6 ml/min/100 g tissue and the “time blood flow remained elevated above basal post-infusion” value is “about 11 minutes”. Moreover, in data set [2] (VIP 6.0 g/kg (so in the source)), the “increase in vaginal blood flow” value turned out to be 7.5±1.3 ml/min/100 g tissue. Moreover, in the data set on anaesthetised rabbit (VIP 6.0 μg/kg iv), the “increase in heart rate” value is 16±4 beats per minute and the “reduction in mean arterial blood pressure” value stood at 13.2±0.7 mm Hg. For the same molecule, in the data set on anaesthetised rabbit (VIP 60.0 μg/kg iv), the “increase in heart rate” value came out at 111±30 beats per minute and the “reduction in mean arterial blood pressure” value is given as 14.7±1.37 mm Hg. The “subsequent increase in mean arterial blood pressure” value in the data set with anaesthetised rabbit (VIP 60.0 μg/kg iv, following heart rate increase) was determined as 8.5±1.4 mm Hg. Moreover, the “effect on mean arterial blood pressure” value in the data set with anaesthetised rabbit (anaesthetised rabbit) is reported as “significant depression”. Also, the “effect on cAMP levels in vaginal smooth muscle cell cultures” value in data set [3] is recorded as “no effect; also recorded: fails to elevate”.
